Test results reported in patent publication US20220251039A1, “Diaryl-B-Lactam Compound and Preparation Method and Pharmaceutical Use Thereof” (Fudan University, priority 2016, published 2022).
“Also recorded” adds a separate entry of the source.

Key:
[1] = test system: p-histone H3, cyclin B1 and BuBR1; test: Cell cycle associated proteins assay; assay type: cell-based, human; details: HeLa cells, 24 h, Western blot and qPCR
Method: A. HeLa cells were treated with 69, 70, 97 or DMSO for 24 h. After being harvested, the cells were lysed, and the concentrations of total protein were determined by BCA protein assay kit (Beyotime, China). […] The membrane was blocked with 5% BSA in TBST for 1.5 h, then incubated overnight with specific primary antibodies (Proteintech) at 4° C. After being washed three times by TBST, the membrane was incubated with specific secondary antibodies (Abnova, Taipei, China) at room temperature for 2 h. Finally, chemiluminescent reagents (Millipore) were employed to detect the protein bands.
(§1) B. Quantitative PCR assay: HeLa cells were treated with 69, 70 or 97. The expression level of mRNA of target proteins was tested with qPCR kit (Takara).

[2] = test system: MDA-MB-231 cells; test: Colony formation assay; assay type: cell-based, human; details: 48 h treatment, 7-10 days growth
Method: 1000 MDA-MB-231 cells per well were seeded into 6-well plate at a single cell density and were cultured at 37° C. for 48 h. After being treated with indicated concentrations of 69, 70 and 97, CA-4 as positive control, or diluent (0.2% DMSO) as negative control for 48 h, the agents containing medium was replaced by fresh medium to allow cell growth for additional 7-10 days. Then the cells were fixed with methanol and stained with gentian violet for 30 min. The number of colonies which consisted of more than 50 cells were counted. The results were indicated as mean values from three independent determinations.

[3] = test system: KM mice; test: Acute toxicity assay; assay type: in vivo
Method: KM mice were housed individually in a specific pathogen free facility. Groups of mice (n=10 per group, half male and half female) were injected intraperitoneally once with various dosages of 69 (95, 70, 50, 35, 25 mg/kg), 70 (500, 425, 350, 275, 200 mg/kg), 97 (275, 200, 150, 125 and 100 mg/kg) or vehicle (8.3% cremohorp EL and 8.3% alcohol in PBS) as negative control, respectively. 69, 70 and 97 was dissolved in cremeohore EL and alcohol mixture (1:1, v/v) and further diluted with PBS (1:5, v/v). The death of mice were monitored daily and recorded up to 14 days after injection.

[4] = test system: tubulin; test: Immunoblotting analysis of polymerized/depolymerized tubulin; assay type: cell-based, human; details: Hela cells, 6 h
Method: After being treated with diluent (0.2% DMSO), tested compound, CA-4 or PTX for 6 h, Hela cells were lysed with microtubulestabilizing buffer, containing 100 mM PIPES, pH 6.8, 1 mM MgCl2, 2 mM EGTA, 0.5% NP-40, 2 M glycerol, 5 μM PTX and protease inhibitors cocktail (Roche), and the lysate was centrifuged at 15,000 rpm for 15 min. Supernatant containing depolymerized tubulin was carefully collected, whereas pellet (polymerized tubulin) was further dissolved in SDS-lysis buffer (Beyotime, China). Equal amounts of supernatant and dissolved pellet were subjected to immunoblotting analysis as described above using a tubulin antibody (Proteintech).

[5] = test system: tubulin; test: Immunofluorescent analysis of tubulin morphology; assay type: cell-based, human; details: SKOV-3 cells, 24 h
Method: After treatment with diluent (0.2% DMSO) or tested compounds at indicated concentrations for 24 h, SKOV-3 cells were fixed with methanol, permeabilized with 0.1% Triton X-100 in PBS and blocked by goat serum. Then the cells were incubated with a-tubulin antibody at 4° C. overnight, followed by incubation with Alexa 488 labeled secondary antibody (Jackson ImmunoResearch) at RT for 1 h. After being stained with DAPI, cells were examined and photographed with a Leica SP5 co-focal fluorescence microscope.

[6] = test system: A2780 cells; test: Xenografts tumor growth assay in nude mice; assay type: in vivo, Balb/c nude mice; details: A2780 xenograft; for tumor growth in vivo: i.p. once every 2 days, 69 7.5 mg/kg, 70 12.5 mg/kg, 97 4 or 8 mg/kg; for H&E staining of liver, kidney and spleen / H&E staining of tumor sections (necrosis): treated groups
Method: 6 weeks old female Balb/c nude mice were purchased from Shanghai Slac Laboratory Animal Co. Ltd. (Shanghai, China). 2*10^6 A2780 cells suspended in 0.2 mL PBS per mouse was injected subcutaneously into the nude mice. […] Administration of agents or vehicle, or agents and measurement of tumor volumes with a digital caliper was done once every 2 days. Tumor volumes were calculated as volume=shortest diameter (W)^2*longest diameter (L)*0.52. When the average tumor volumes of vehicle treated group reached 2000 mm^3 in diameter, the mice were sacrificed and the tumors were isolated and weighed. Visceral organs of the mice as well as solid tumors were further analyzed by H&E staining.

[7] = test system: Bax, p53 and cleaved-PARP; test: Expression level of apoptosis associated proteins; assay type: cell-based, human; details: HeLa cells, Western blot and qPCR
Method: A. Western blotting: After being treated with candidate compound, cells were harvested and lysed. Then, the lysate was isolated by ultracentrifuge and quantified by BCA assay according to the protocol. After being denatured, equivalent protein of each sample was separated by SDS-PAGE gel and wet-transferred onto […] nitrocellulose membrane. After being blocked by PBS containing 5% skim milk, the membrane was incubated with primary antibody at 4° C. overnight and secondary antibody at room temperature for 2 h and then visualized by enhanced chemiluminescence kit (Thermo Fisher, USA), sequentially.
as §1

[8] = test system: cellular apoptosis; test: Cell apoptosis analysis (Annexin V/PI); assay type: cell-based; details: 48 h, Annexin-V/PI flow cytometry
Method: Cell apoptosis was detected using FITC Annexin V Apoptosis Detection Kit (BD Biosciences) according to manufacturer's instructions. Briefly, cells were incubated with indicated concentrations of 69, 70 and 97, CA-4 as positive control or diluent (0.2% DMSO) as negative control for 48 h. Then the cells were harvested, washed twice with PBS, and re-suspended in binding buffer. After being stained with Annexin-V and PI for 15 min in the dark place, cells were subjected to flow cytometry (Cytomics FC 500 MPL, Beckman Coulter) analysis. The results were indicated as mean values from three independent determinations.

## COc1ccc([C@H]2[C@H](CO)C(=O)N2c2cc(OC)c(OC)c(OC)c2)cc1O [Compound 69, (3R,4R)-4-(3-hydroxy-4-methoxyphenyl)-3-(hydroxymethyl)-1-(3,4,5-trimethoxyphenyl)azetidin-2-one]
[1]
  expression of p-histone H3, cyclin B1 and BuBR1: significantly promote the expression of phosphorylated histone H3, cyclin B1, and mitotic checkpoint protein BuBR1
[2]
  colony formation: significantly inhibit the formation of colonies of cancer cells
[3]; 25 mg/kg i.p. once
  No. of dead mice 5-14 days: 0
  No. of dead mice 1 day: 0
  No. of dead mice 2 days: 0
  No. of dead mice 3 days: 0
  No. of dead mice 4 days: 0
  No. of dead mice Total death: 0
  Survival (%) on day 14: 100%
[3]; 35 mg/kg i.p. once
  No. of dead mice 5-14 days: 0
  No. of dead mice 1 day: 0
  No. of dead mice 2 days: 0
  No. of dead mice 3 days: 1
  No. of dead mice 4 days: 0
  No. of dead mice Total death: 1
  Survival (%) on day 14: 90%
[3]; 50 mg/kg i.p. once
  No. of dead mice 5-14 days: 0
  No. of dead mice 1 day: 0
  No. of dead mice 2 days: 0
  No. of dead mice 3 days: 1
  No. of dead mice 4 days: 0
  No. of dead mice Total death: 1
  Survival (%) on day 14: 90%
[3]; 70 mg/kg i.p. once
  No. of dead mice 5-14 days: 1
  No. of dead mice 1 day: 0
  No. of dead mice 2 days: 0
  No. of dead mice 3 days: 4
  No. of dead mice 4 days: 2
  No. of dead mice Total death: 7
  Survival (%) on day 14: 30%
[3]; 95 mg/kg i.p. once
  No. of dead mice 5-14 days: 1
  No. of dead mice 1 day: 0
  No. of dead mice 2 days: 0
  No. of dead mice 3 days: 6
  No. of dead mice 4 days: 1
  No. of dead mice Total death: 8
  Survival (%) on day 14: 20%
[4]
  polymerized tubulin (immunoblotting): significantly inhibit tubulin aggregation; also recorded: dramatically reduction of polymerized tubulin
[5]
  tubulin assembly (immunofluorescence): significantly inhibit tubulin aggregation; also recorded: strongly inhibit tubulin assembly in cancer cells
[6]
  tumor growth in vivo: significantly inhibit tumor growth in vivo; also recorded: anti-tumor activities in vivo
  H&E staining of liver, kidney and spleen: no abnormal areas are observed in tissue staining of liver, kidney and spleen; also recorded: no detectable abnormalities were observed in liver, kidney and spleen
  H&E staining of tumor sections (necrosis): cause tumor tissue to produce necrotic areas; also recorded: extensive areas of necrosis or cell death
[7]
  expression of Bax, p53 and cleaved-PARP: significantly promote the expression of the proapoptotic protein Bax, the tumor suppressor gene p53, and the cleaved DNA repair enzyme; also recorded: significantly induce the expression of Bax, p53 and cleaved-PARP
[8]
  cellular apoptosis: significantly promote apoptosis; also recorded: significantly induce cellular apoptosis

## COc1ccc([C@H]2[C@@H](C)C(=O)N2c2cc(OC)c(OC)c(OC)c2)cc1O [Compound 70, (3R,4R)-4-(3-hydroxy-4-methoxyphenyl)-3-methyl-1-(3,4,5-trimethoxyphenyl)azetidin-2-one]
[1]
  expression of p-histone H3, cyclin B1 and BuBR1: significantly promote the expression of phosphorylated histone H3, cyclin B1, and mitotic checkpoint protein BuBR1
[2]
  colony formation: significantly inhibit the formation of colonies of cancer cells
[3]; 200 mg/kg i.p. once
  No. of dead mice 5-14 days: 0
  No. of dead mice 1 day: 0
  No. of dead mice 2 days: 0
  No. of dead mice 3 days: 0
  No. of dead mice 4 days: 0
  No. of dead mice Total death: 0
  Survival (%) on day 14: 100%
[3]; 275 mg/kg i.p. once
  No. of dead mice 5-14 days: 1
  No. of dead mice 1 day: 0
  No. of dead mice 2 days: 0
  No. of dead mice 3 days: 0
  No. of dead mice 4 days: 1
  No. of dead mice Total death: 2
  Survival (%) on day 14: 80%
[3]; 350 mg/kg i.p. once
  No. of dead mice 5-14 days: 0
  No. of dead mice 1 day: 0
  No. of dead mice 2 days: 0
  No. of dead mice 3 days: 1
  No. of dead mice 4 days: 0
  No. of dead mice Total death: 1
  Survival (%) on day 14: 90%
[3]; 425 mg/kg i.p. once
  No. of dead mice 5-14 days: 0
  No. of dead mice 1 day: 0
  No. of dead mice 2 days: 0
  No. of dead mice 3 days: 3
  No. of dead mice 4 days: 0
  No. of dead mice Total death: 3
  Survival (%) on day 14: 70%
[3]; 500 mg/kg i.p. once
  No. of dead mice 5-14 days: 0
  No. of dead mice 1 day: 0
  No. of dead mice 2 days: 0
  No. of dead mice 3 days: 4
  No. of dead mice 4 days: 0
  No. of dead mice Total death: 4
  Survival (%) on day 14: 60%
[4]
  polymerized tubulin (immunoblotting): significantly inhibit tubulin aggregation; also recorded: dramatically reduction of polymerized tubulin
[5]
  tubulin assembly (immunofluorescence): significantly inhibit tubulin aggregation; also recorded: strongly inhibit tubulin assembly in cancer cells
[6]
  tumor growth in vivo: significantly inhibit tumor growth in vivo; also recorded: anti-tumor activities in vivo
  H&E staining of liver, kidney and spleen: no abnormal areas are observed in tissue staining of liver, kidney and spleen; also recorded: no detectable abnormalities were observed in liver, kidney and spleen
  H&E staining of tumor sections (necrosis): cause tumor tissue to produce necrotic areas; also recorded: extensive areas of necrosis or cell death
[7]
  expression of Bax, p53 and cleaved-PARP: significantly promote the expression of the proapoptotic protein Bax, the tumor suppressor gene p53, and the cleaved DNA repair enzyme; also recorded: significantly induce the expression of Bax, p53 and cleaved-PARP
[8]
  cellular apoptosis: significantly promote apoptosis; also recorded: significantly induce cellular apoptosis
